Assay results taken from US7060657B2, “Combinations of cyclohexanedione oxime herbicides and safeners” (Bayer CropScience GmbH, priority 2002, dated 2006).

What was measured:
Format in all cases: in vivo
[1] = system: Triticum aestivum (winter wheat); experiment: Post-emergence field trial on winter wheat (Example 5); details: 3-5 leaf growth stage, 21 days after treatment
Experimental: (§1) The numbers in the columns refer to the percentage damage to the crop or weed. Winter wheat was grown outdoors on plots under natural outdoor conditions, and seeds of typical harmful plants were laid out. Treatment with the herbicide (A), the safener (B) and the herbicide-safener combination (A)+(B) was carried out after the harmful plants had emerged and the wheat was in the growth stage between 3 and 5 leaves. The effect of the composition was assessed 28 days after treatment by scoring visually in comparison with untreated controls. Field trials were carried out according to the above Example 1 and applying a mixture of cycloxydim and fenoxaprop-P-ethyl+mefenpyr-diethyl to winter wheat and the weed Avena fatua at the 3–5 leaf growth stage. Assessment was 21 days after treatment.

Avena fatua = experiment: Post-emergence field trial on weeds (Example 5); details: 3-5 leaf growth stage, 21 days after treatment
Experimental: as §1

[2] = system: Hordeum vulgare (summer barley); experiment: Post-emergence field trials, selectivity in barley (Examples 2-4)
Experimental: (§2) The numbers in the columns refer to the percentage damage to the crop or weed.
(§3) Winter wheat was grown outdoors on plots under natural outdoor conditions, and seeds of typical harmful plants were laid out. Treatment with the herbicide (A), the safener (B) and the herbicide-safener combination (A)+(B) was carried out after the harmful plants had emerged and the wheat was in the growth stage between 3 and 5 leaves. The effect of the composition was assessed 28 days after treatment by scoring visually in comparison with untreated controls.
(§4) Field trials were carried out according to the above Example 1 but using the crops barley and durum wheat and applying a mixture of clethodim and mefenpyr-diethyl.
(§5) Field trials were carried out according to the above Example 2 and applying a mixture of clethodim and fenoxaprop-P-ethyl plus mefenpyr-diethyl.
(§6) Field trials were carried out according to the above Example 2 and applying a mixture of tepraloxydim and mefenpyr-diethyl, or tepraloxydim and fenoxaprop-P-ethyl plus mefenpyr-diethyl.

[3] = system: Triticum durum desf. (durum wheat); experiment: Post-emergence field trials, selectivity in durum wheat (Examples 2-4)
Experimental: as §2, §3, §4, §5, §6

[4] = system: Triticum aestivum (winter wheat); experiment: Post-emergence field trial, selectivity in winter wheat (Example 1); details: 28 days after treatment
Experimental: as §2
(§7) Post-Emergence Effect on Weeds and Selectivity in Winter Wheat (Field Trials)
as §3

Alopecurus myosuroides = experiment: Post-emergence field trial, effect on weeds (Example 1); details: 28 days after treatment
Experimental: as §2, §7, §3
(§8) The percentage control of the weed species are shown in comparison with the expected values given in parentheses.

Phalaris minor = experiment: as above; details: 28 days after treatment
Experimental: as §2, §7, §3, §8

CCCC(=NOCC)C1=C(O)CC(C2CCCSC2)CC1=O (racemic) [Compound A5, (±)-2-[1-(ethoxyimino)butyl]-3-hydroxy-5-thian-3-ylcyclohex-2-enone]
Phytotox (%) on TRZAW ([1]; 40 g a.i./ha): 16% | Phytotox (%) on AVEFA (Avena fatua; 40 g a.i./ha): 65%

CCC(=NOC/C=C/Cl)C1=C(O)CC(C2CCOCC2)CC1=O (racemic) [(A7), (EZ)-(RS)-2-{1-[(2E)-3-chloroallyloxyimino]propyl}-3-hydroxy-5-perhydropyran-4-ylcyclohex-2-en-1-one]
Phytotox (%) on HORVS ([2]; 8.25 g ai/ha): 78% | Phytotox (%) on TRZDU ([3]; 8.25 g ai/ha): 70%

CCSC(C)CC1CC(=O)C(/C(CC)=N/OC/C=C/Cl)=C(O)C1 (racemic) [(A4), (±)-2-[(E)-1-[(E)-3-chloroallyloxyimino]propyl]-5-[2-(ethylthio)propyl]-3-hydroxycyclohex-2-enone]
Phytotox (%) on HORVS ([2]; 7.5 g ai/ha): 51% | Phytotox (%) on HORVS ([2]; 15 g ai/ha): 67% | Phytotox (%) on TRZDU ([3]; 7.5 g ai/ha): 32% | Phytotox (%) on TRZDU ([3]; 15 g ai/ha): 56%

CCCC(=NOCC)C1=C(O)CC(CC(C)SCC)CC1=O (racemic) [Compound A6, (±)-(EZ)-2-(1-ethoxyiminobutyl)-5-[2-(ethylthio)propyl]-3-hydroxycyclohex-2-enone]
Phytotox (%) on TRZAW ([4]; 72 g a.i./ha): 28% | Phytotox (%) on ALOMY (Alopecurus myosuroides; 72 g a.i./ha): 70% | Phytotox (%) on PHAMI (Phalaris minor; 72 g a.i./ha): 55%

CCOC(=O)C1=NN(c2ccc(Cl)cc2Cl)C(C)(C(=O)OCC)C1 (stereo not drawn) [(B1), ethyl 1-(2,4-dichlorophenyl)-5-(ethoxycarbonyl)-5-methyl-2-pyrazoline-3-carboxylate]
Phytotox (%) on TRZAW ([4]; 11 g a.i./ha): 0% | Phytotox (%) on TRZAW ([4]; 45 g a.i./ha): 0% | Phytotox (%) on ALOMY (Alopecurus myosuroides; 11 g a.i./ha): 0% | Phytotox (%) on ALOMY (Alopecurus myosuroides; 45 g a.i./ha): 0% | Phytotox (%) on PHAMI (Phalaris minor; 11 g a.i./ha): 0% | Phytotox (%) on PHAMI (Phalaris minor; 45 g a.i./ha): 0% | Phytotox (%) on HORVS ([2]; 100 g ai/ha): 0% | Phytotox (%) on TRZDU ([3]; 100 g ai/ha): 0% | Phytotox (%) on TRZAW ([1]; 71 g a.i./ha): 0% | Phytotox (%) on AVEFA (Avena fatua; 71 g a.i./ha): 0%
